{"source": "patent US9149038B2", "about": "“4-amino-6-(heterocyclic)picolinates and 6-amino-2-(heterocyclic)pyrimidine-4-carboxylates and their use as herbicides” (Dow AgroSciences LLC, priority 2013, dated 2015)", "system": "Direct Seeded Rice and weed species", "experiment": "Postemergence herbicidal activity in direct seeded rice, visual rating after 20-22 days and probit GR20/GR50/GR80/GR90 (Table 14)", "assay_type": "in vivo", "settings": "for pest or weed control at 17.5 g/ha / pest or weed control at 35 g/ha / pest or weed control at 70 g/ha: post-emergence, 504 h, postemergence; for pest or weed control at 17.5 g/ha: 17.5 g ai/ha; for pest or weed control at 35 g/ha: 35 g ai/ha; for pest or weed control at 70 g/ha: 70 g ai/ha", "method_in_brief": "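Visual injury scores (0 = none, 100 = complete kill) taken 20-22 days after treatment and fitted by probit analysis over several doses to give GR20/GR50/GR80/GR90. Plants at 2nd–3rd true leaf in pH about 8.1 loam–sand mix received track-sprayer applications of 187 L/ha containing 1.25% (v/v) crop oil concentrate.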", "key": {"[1]": {"settings": "BRAPP (broadleaf signalgrass, Brachiaria platyphylla), read-out: Visual Growth Reduction (%) 21 Days After Application BRAPP"}, "[2]": {"settings": "CYPDI (small-flower flatsedge, Cyperus difformis), read-out: Visual Growth Reduction (%) 21 Days After Application CYPDI"}, "[3]": {"settings": "CYPES (yellow nutsedge, Cyperus esculentus), read-out: Visual Growth Reduction (%) 21 Days After Application CYPES"}, "[4]": {"settings": "CYPIR (rice flatsedge, Cyperus iria), read-out: Visual Growth Reduction (%) 21 Days After Application CYPIR"}, "[5]": {"settings": "DIGSA (large crabgrass, Digitaria sanguinalis), read-out: Visual Growth Reduction (%) 21 Days After Application DIGSA"}, "[6]": {"settings": "ECHCG (barnyardgrass, Echinochloa crus-galli), read-out: Visual Growth Reduction (%) 21 Days After Application ECHCG"}, "[7]": {"settings": "ECHCO (junglerice, Echinochloa colonum), read-out: Visual Growth Reduction (%) 21 Days After Application ECHCO"}, "[8]": {"settings": "LEFCH (Chinese sprangletop, Leptochloa chinensis), read-out: Visual Growth Reduction (%) 21 Days After Application LEFCH"}, "[9]": {"settings": "ORYSJ (Oryza sativa, rice crop), read-out: Visual Growth Reduction (%) 21 Days After Application ORYSJ"}, "[10]": {"settings": "ORYSK (Oryza sativa, rice crop), read-out: Visual Growth Reduction (%) 21 Days After Application ORYSK"}, "[11]": {"settings": "SCPJU (Japanese bulrush, Schoenoplectus juncoides Roxb.), read-out: Visual Growth Reduction (%) 21 Days After Application SCPJU"}, "[12]": {"settings": "SEBEX (hemp sesbania, Sesbania exaltata), read-out: Visual Growth Reduction (%) 21 Days After Application SEBEX"}}, "note": "Where two headings read alike, the source gives them in different places."}
{"smiles": "Nc1c(F)c(-c2ccc3c(c2F)OC(F)(F)O3)nc(C(=O)O)c1Cl", "note": "[Compound 11]", "values": [{"measurement": "GR50 BRAPP", "setting": "BRAPP (Brachiaria platyphylla), probit analysis, dose for 50 percent growth reduction", "result": 7, "unit": "g ai/ha"}, {"measurement": "GR80 BRAPP", "setting": "BRAPP (Brachiaria platyphylla), probit analysis, dose for 80 percent growth reduction", "result": 16, "unit": "g ai/ha"}, {"measurement": "GR90 BRAPP", "setting": "BRAPP (Brachiaria platyphylla), probit analysis, dose for 90 percent growth reduction", "result": 25, "unit": "g ai/ha"}, {"measurement": "GR50 CYPDI", "setting": "CYPDI (Cyperus difformis), probit analysis, dose for 50 percent growth reduction", "result": 3, "unit": "g ai/ha"}, {"measurement": "GR80 CYPDI", "setting": "CYPDI (Cyperus difformis), probit analysis, dose for 80 percent growth reduction", "result": 7, "unit": "g ai/ha"}, {"measurement": "GR90 CYPDI", "setting": "CYPDI (Cyperus difformis), probit analysis, dose for 90 percent growth reduction", "result": 10, "unit": "g ai/ha"}, {"measurement": "GR50 CYPES", "setting": "CYPES (Cyperus esculentus), probit analysis, dose for 50 percent growth reduction", "result": "<18", "unit": "g ai/ha"}, {"measurement": "GR80 CYPES", "setting": "CYPES (Cyperus esculentus), probit analysis, dose for 80 percent growth reduction", "result": "<18", "unit": "g ai/ha"}, {"measurement": "GR90 CYPES", "setting": "CYPES (Cyperus esculentus), probit analysis, dose for 90 percent growth reduction", "result": "<18", "unit": "g ai/ha"}, {"measurement": "GR50 CYPIR", "setting": "CYPIR (Cyperus iria), probit analysis, dose for 50 percent growth reduction", "result": 5, "unit": "g ai/ha"}, {"measurement": "GR80 CYPIR", "setting": "CYPIR (Cyperus iria), probit analysis, dose for 80 percent growth reduction", "result": 7, "unit": "g ai/ha"}, {"measurement": "GR90 CYPIR", "setting": "CYPIR (Cyperus iria), probit analysis, dose for 90 percent growth reduction", "result": 7, "unit": "g ai/ha"}, {"measurement": "GR50 DIGSA", "setting": "DIGSA (Digitaria sanguinalis), probit analysis, dose for 50 percent growth reduction", "result": 1, "unit": "g ai/ha"}, {"measurement": "GR80 DIGSA", "setting": "DIGSA (Digitaria sanguinalis), probit analysis, dose for 80 percent growth reduction", "result": 4, "unit": "g ai/ha"}, {"measurement": "GR90 DIGSA", "setting": "DIGSA (Digitaria sanguinalis), probit analysis, dose for 90 percent growth reduction", "result": 9, "unit": "g ai/ha"}, {"measurement": "GR50 ECHCG", "setting": "ECHCG (Echinochloa crus-galli), probit analysis, dose for 50 percent growth reduction", "result": 7, "unit": "g ai/ha"}, {"measurement": "GR80 ECHCG", "setting": "ECHCG (Echinochloa crus-galli), probit analysis, dose for 80 percent growth reduction", "result": 15, "unit": "g ai/ha"}, {"measurement": "GR90 ECHCG", "setting": "ECHCG (Echinochloa crus-galli), probit analysis, dose for 90 percent growth reduction", "result": 23, "unit": "g ai/ha"}, {"measurement": "GR50 ECHCO", "setting": "ECHCO (Echinochloa colonum), probit analysis, dose for 50 percent growth reduction", "result": 4, "unit": "g ai/ha"}, {"measurement": "GR80 ECHCO", "setting": "ECHCO (Echinochloa colonum), probit analysis, dose for 80 percent growth reduction", "result": 9, "unit": "g ai/ha"}, {"measurement": "GR90 ECHCO", "setting": "ECHCO (Echinochloa colonum), probit analysis, dose for 90 percent growth reduction", "result": 14, "unit": "g ai/ha"}, {"measurement": "GR50 LEFCH", "setting": "LEFCH (Leptochloa chinensis), probit analysis, dose for 50 percent growth reduction", "result": 23, "unit": "g ai/ha"}, {"measurement": "GR80 LEFCH", "setting": "LEFCH (Leptochloa chinensis), probit analysis, dose for 80 percent growth reduction", "result": 34, "unit": "g ai/ha"}, {"measurement": "GR90 LEFCH", "setting": "LEFCH (Leptochloa chinensis), probit analysis, dose for 90 percent growth reduction", "result": 41, "unit": "g ai/ha"}, {"measurement": "GR20 ORYSJ", "setting": "ORYSJ (Oryza sativa, rice crop), probit analysis, dose for 20 percent growth reduction", "result": 8, "unit": "g ai/ha"}, {"measurement": "GR20 ORYSK", "setting": "ORYSK (Oryza sativa, rice crop), probit analysis, dose for 20 percent growth reduction", "result": 7, "unit": "g ai/ha"}, {"measurement": "GR50 SCPJU", "setting": "SCPJU (Schoenoplectus juncoides Roxb.), probit analysis, dose for 50 percent growth reduction", "result": 0.04, "unit": "g ai/ha"}, {"measurement": "GR80 SCPJU", "setting": "SCPJU (Schoenoplectus juncoides Roxb.), probit analysis, dose for 80 percent growth reduction", "result": 1, "unit": "g ai/ha"}, {"measurement": "GR90 SCPJU", "setting": "SCPJU (Schoenoplectus juncoides Roxb.), probit analysis, dose for 90 percent growth reduction", "result": 2, "unit": "g ai/ha"}, {"measurement": "GR50 SEBEX", "setting": "SEBEX (Sesbania exaltata), probit analysis, dose for 50 percent growth reduction", "result": 3, "unit": "g ai/ha"}, {"measurement": "GR80 SEBEX", "setting": "SEBEX (Sesbania exaltata), probit analysis, dose for 80 percent growth reduction", "result": 7, "unit": "g ai/ha"}, {"measurement": "GR90 SEBEX", "setting": "SEBEX (Sesbania exaltata), probit analysis, dose for 90 percent growth reduction", "result": 10, "unit": "g ai/ha"}, {"measurement": "pest or weed control at 17.5 g/ha", "setting": "[1]", "result": "85 to 94", "unit": "%"}, {"measurement": "pest or weed control at 35 g/ha", "setting": "[1]", "result": "95 to 100", "unit": "%"}, {"measurement": "pest or weed control at 70 g/ha", "setting": "[1]", "result": "95 to 100", "unit": "%"}, {"measurement": "pest or weed control at 17.5 g/ha", "setting": "[2]", "result": "95 to 100", "unit": "%"}, {"measurement": "pest or weed control at 35 g/ha", "setting": "[2]", "result": "95 to 100", "unit": "%"}, {"measurement": "pest or weed control at 70 g/ha", "setting": "[2]", "result": "95 to 100", "unit": "%"}, {"measurement": "pest or weed control at 17.5 g/ha", "setting": "[3]", "result": "85 to 94", "unit": "%"}, {"measurement": "pest or weed control at 35 g/ha", "setting": "[3]", "result": "95 to 100", "unit": "%"}, {"measurement": "pest or weed control at 70 g/ha", "setting": "[3]", "result": "95 to 100", "unit": "%"}, {"measurement": "pest or weed control at 17.5 g/ha", "setting": "[4]", "result": "95 to 100", "unit": "%"}, {"measurement": "pest or weed control at 35 g/ha", "setting": "[4]", "result": "95 to 100", "unit": "%"}, {"measurement": "pest or weed control at 70 g/ha", "setting": "[4]", "result": "95 to 100", "unit": "%"}, {"measurement": "pest or weed control at 17.5 g/ha", "setting": "[5]", "result": "95 to 100", "unit": "%"}, {"measurement": "pest or weed control at 35 g/ha", "setting": "[5]", "result": "95 to 100", "unit": "%"}, {"measurement": "pest or weed control at 70 g/ha", "setting": "[5]", "result": "95 to 100", "unit": "%"}, {"measurement": "pest or weed control at 17.5 g/ha", "setting": "[6]", "result": "95 to 100", "unit": "%"}, {"measurement": "pest or weed control at 35 g/ha", "setting": "[6]", "result": "85 to 94", "unit": "%"}, {"measurement": "pest or weed control at 70 g/ha", "setting": "[6]", "result": "95 to 100", "unit": "%"}, {"measurement": "pest or weed control at 17.5 g/ha", "setting": "[7]", "result": "95 to 100", "unit": "%"}, {"measurement": "pest or weed control at 35 g/ha", "setting": "[7]", "result": "95 to 100", "unit": "%"}, {"measurement": "pest or weed control at 70 g/ha", "setting": "[7]", "result": "95 to 100", "unit": "%"}, {"measurement": "pest or weed control at 17.5 g/ha", "setting": "[8]", "result": "0 to 29", "unit": "%"}, {"measurement": "pest or weed control at 35 g/ha", "setting": "[8]", "result": "95 to 100", "unit": "%"}, {"measurement": "pest or weed control at 70 g/ha", "setting": "[8]", "result": "95 to 100", "unit": "%"}, {"measurement": "pest or weed control at 17.5 g/ha", "setting": "[9]", "result": "30 to 44", "unit": "%"}, {"measurement": "pest or weed control at 35 g/ha", "setting": "[9]", "result": "75 to 84", "unit": "%"}, {"measurement": "pest or weed control at 70 g/ha", "setting": "[9]", "result": "85 to 94", "unit": "%"}, {"measurement": "pest or weed control at 17.5 g/ha", "setting": "[10]", "result": "45 to 59", "unit": "%"}, {"measurement": "pest or weed control at 35 g/ha", "setting": "[10]", "result": "60 to 74", "unit": "%"}, {"measurement": "pest or weed control at 70 g/ha", "setting": "[10]", "result": "75 to 84", "unit": "%"}, {"measurement": "pest or weed control at 17.5 g/ha", "setting": "[11]", "result": "95 to 100", "unit": "%"}, {"measurement": "pest or weed control at 35 g/ha", "setting": "[11]", "result": "95 to 100", "unit": "%"}, {"measurement": "pest or weed control at 70 g/ha", "setting": "[11]", "result": "95 to 100", "unit": "%"}, {"measurement": "pest or weed control at 17.5 g/ha", "setting": "[12]", "result": "95 to 100", "unit": "%"}, {"measurement": "pest or weed control at 35 g/ha", "setting": "[12]", "result": "95 to 100", "unit": "%"}, {"measurement": "pest or weed control at 70 g/ha", "setting": "[12]", "result": "95 to 100", "unit": "%"}]}
